Measured values taken from patent US6166062A, “Pharmaceutical compositions containing phospholipase inhibitor” (Shionogi & Co., Ltd., priority 1999, dated 2000).

How the values were obtained:
[1] = collapse temperature of frozen solutions (freeze dry microscopy); format: physicochemical
Text: The term, "collapse temperature," describes the glass transition temperature for amorphous solids or eutectic temperature for crystalline solids. Collapse temperature is that temperature above which the product is not completely frozen. Freeze dry microscoscropy enables measurement of the temperature at which frozen solutions begin to lose their rigid structure during a sublimation process.

[2] = solubility of Compound (I) (statement); format: physicochemical
Text: Storage of a pharmaceutical composition of Compound (I) prepared by known methods may lead to degradation of its content and a coloring and a worsening of its reconstitution properties, especially in the case of injections to be dissolved before use. It is difficult to provide a pharmaceutical composition of Compound (I) which has good stability and a good reconstitution property, especially for injections of Compound (I) to be dissolved before use, after long storage at room temperature.

[3] = tested on: human non-pancreatic secretory phospholipase A2 (sPLA2); settings: as disclosed in JP-A 7-285933, EP 0 675 110 A1, U.S. Pat. No. 5,654,326; cited from earlier work

Structure (SMILES): CCc1c(C(=O)C(N)=O)c2c(OCC(=O)[O-])cccc2n1Cc1ccccc1.[Na+] [Compound (I), sodium [[3-(2-amino-1,2-dioxoethyl)-2-ethyl-1-(phenylmethyl)-1H-indol-4-yl]oxy]acetate]
- collapse temperature ([1]; after annealing): about -13 °C
- collapse temperature ([1]; before annealing): about -33 °C
- solubility [2]: sparingly soluble
- inhibitor against human non-pancreatic secretory phospholipase A2 [3]: inhibitor
